We go through 14 substances from US20020049162A1, “Methods for inhibiting smooth muscle cell proliferation” (priority 2000, published 2002).

Entries after “also recorded” stand apart in the source; their conditions may differ. Square brackets hold non-standard residues; d marks the D form. Ends that are not written are not given here. Phe(4-NH2) = Nc1ccc(C[C@H](N)C(=O)O)cc1

Test [1] concerns smooth muscle cell. Particulars: Strawn et al., Hypertension 33:207-211 (1999); cited from earlier work.
The test system of test [2] is Human coronary artery smooth muscle cells. In words: Inhibition of human smooth muscle cell proliferation (cell counts, growth rate vs wells without peptide). Type of test: cell-based. The settings on record: for % Control Proliferation Day 1 vs Day 4 / % Control Proliferation Day 1 vs Day 7: percentage of the control growth rate, values below 100 = inhibition, peptides 0.1-10 μg/ml, concentration not given; for Effect on proliferation of human smooth muscle cells (in words): compared with wells that did not contain peptide.

The subject of test [3] is smooth muscle cell growth after vascular injury. The settings on record: Strawn et al., Hypertension 33:207-211 (1999); cited from earlier work.
Test [4] relates to AT2 receptor. Particulars: cited from earlier work.
Test [5] is described as follows: Unspecified earlier test of effectiveness of AII fragments. The settings on record: test not described.

On to “A(1-7): AII residues 1-7, SEQ ID NO:4 (DRVYIHP) [reference compound]”, for which the “Smooth muscle cell proliferation (in words)” value in test [1] is reported as “inhibit smooth muscle cell proliferation”. In addition, in test [2], the “% Control Proliferation Day 1 vs Day 4” value worked out at 73.3% and the “% Control Proliferation Day 1 vs Day 7” value is given as 63.3%. In test [3], the “Smooth muscle cell growth after vascular injury (in words)” value was “reduce smooth muscle cell growth after vascular injury”.
On to “Arg—Val—Tyr—Ile—His—Pro (RVYIHP) [A(2-7)]”, for which, in test [2], the “Effect on proliferation of human smooth muscle cells (in words)” value (“Effect on proliferation” below) is recorded as “inhibited smooth muscle cell proliferation”, the “% Control Proliferation Day 1 vs Day 4” value came out at 82.4% and the “% Control Proliferation Day 1 vs Day 7” value is reported as 64.8%.
With Asp—Arg—Val—Tyr—Ile (DRVYI) [A(1-5)], in test [2], the “% Control Proliferation Day 1 vs Day 4” value was determined as 85.9% and the “% Control Proliferation Day 1 vs Day 7” value came to 83.1%.
Turning to “Asp—Arg—Val—Tyr—Ile—His—Pro—Phe (DRVYIHPF) [AII, reference compound]”, the “Affinity for AT2 relative to AT1” value in test [4] (higher affinity for AT2 than AT1, Speth and Kim 1990) was 100 times. Moreover, in test [2], the “Effect on proliferation” value is “increased the proliferation”, the “% Control Proliferation Day 1 vs Day 4” value stood at 121.4% and the “% Control Proliferation Day 1 vs Day 7” value is given as 154.5%.
Take “Asp—Arg—Val—Tyr—Ile—Xaa—Pro—Phe (DRVYI[Phe(4-NH2)]PF) [p-aminophenylalanine6-AII]”: the “Binding characteristics (in words)” value in test [4] (experimental models of Catalioto 1994, Bryson 1992) is “comparable to AT2 antagonists”.
For the substance DRKYIHP [Peptide 5GD], in test [2], the “Effect on proliferation” value was “inhibited smooth muscle cell proliferation”, the “% Control Proliferation Day 1 vs Day 4” value is reported as 86.6% and the “% Control Proliferation Day 1 vs Day 7” value was 80.1%.
On the same counts, the results for DRP(OH)AIHP [Peptide 8GD] are “inhibited smooth muscle cell proliferation”, 72.6% and 66.4%.
On the same counts, the results for DRVAIHP [Peptide 1GD] are “inhibited smooth muscle cell proliferation”, 55.4% and 54.2%.
For DRVYIH [A(1-6)], in test [2], the “Effect on proliferation” value is “inhibited smooth muscle cell proliferation”, the “% Control Proliferation Day 1 vs Day 4” value is reported as 76.5% and the “% Control Proliferation Day 1 vs Day 7” value was determined as 61.1%.
Turning to His—Pro—Phe (HPF) [AII(6-8)], the “Effectiveness (in words)” value in test [5] is on record as “not to be effective”.
For the substance Ile—His—Pro—Phe (IHPF) [A(5-8)], in test [2], the “Effect on proliferation” value is reported as “inhibited smooth muscle cell proliferation”, the “% Control Proliferation Day 1 vs Day 4” value is 63.1% and the “% Control Proliferation Day 1 vs Day 7” value is reported as 55.0%.
For the substance Tyr—Ile—His—Pro—Phe (YIHPF) [AII(4-8)], the “Effectiveness (in words)” value in test [5] is “not to be effective; also recorded: ineffective”.
With Val—Tyr—Ile—His—Pro (VYIHP) [A(3-7)], in test [2], the “Effect on proliferation” value is “inhibited smooth muscle cell proliferation”, the “% Control Proliferation Day 1 vs Day 4” value stood at 80.5% and the “% Control Proliferation Day 1 vs Day 7” value turned out to be 70.0%.
On the same counts, the results for “Val—Tyr—Ile—His—Pro—Phe (VYIHPF) [A(3-8)]” are “inhibited smooth muscle cell proliferation”, 74.7% and 61.7%.
